Reference: PubChem BioAssay AID652228 (The Scripps Research Institute Molecular Screening Center, 2013)
The source made the active and inactive calls.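 Rule for the calls: active = protein phosphatase 1 activity cut by at least 70% at 50 µM; inactive = inhibition below 70%.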

target: Serine/threonine-protein phosphatase PP1-alpha catalytic subunit (Homo sapiens) (UniProt P62136); experiment: PP1alpha phosphatase inhibitors, histone substrate – biochemical, radiolabel, single concentration, powder samples, late-stage follow-up (AID 652228); conditions: purified PP1alpha, 33P-phosphohistone dephosphorylation, scintillation; at 50 µM; stronger effect = higher value
Sequence (P62136 whole entry, looked up): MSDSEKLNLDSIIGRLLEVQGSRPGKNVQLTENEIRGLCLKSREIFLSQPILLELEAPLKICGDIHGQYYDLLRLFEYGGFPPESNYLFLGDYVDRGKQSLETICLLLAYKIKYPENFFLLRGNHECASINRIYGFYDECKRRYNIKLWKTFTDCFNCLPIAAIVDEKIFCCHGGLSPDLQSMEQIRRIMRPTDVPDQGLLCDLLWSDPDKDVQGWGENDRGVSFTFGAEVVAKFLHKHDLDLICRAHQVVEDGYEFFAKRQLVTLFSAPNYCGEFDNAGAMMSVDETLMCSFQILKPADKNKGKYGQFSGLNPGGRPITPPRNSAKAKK

inhibition | SMILES
-38.1% (inactive) | CN1CCN(C(c2ccccn2)c2cc(Cl)c3cccnc3c2O)CC1 (stereo not given)
2.44% (inactive) | CN1CCN(C(c2ccccn2)c2cc(Cl)ccc2O)CC1 (stereo not given)
-51.6% (inactive) | CCN1CCN(C(c2ccccn2)c2cc(Cl)c3cccnc3c2O)CC1 (stereo not given)
5.68% (inactive) | CN1CCN(C(c2ccccn2)c2cc(Cl)c3ccccc3c2O)CC1 (stereo not given)
35.7% | Oc1c(C(c2ccccn2)N2CCN(c3ccccc3F)CC2)cc(Cl)c2cccnc12 (stereo not given)
49.1% | CC(C)(C)OC(=O)N1CCN(C(c2ccccn2)c2cc(Cl)c3cccnc3c2O)CC1 (stereo not given)
12.6% (inactive) | Oc1c(CN2CCN(c3ccccn3)CC2)cc(Cl)c2cccnc12
57.4% | Oc1c(C(c2ccccn2)N2CCC(Cc3ccccc3)CC2)cc(Cl)c2cccnc12 (stereo not given)
18.5% (inactive) | Oc1c(CN2CCN(c3ccccc3)CC2)cc(Cl)c2cccnc12

Further lines, the molecule ahead of its results:

SMILES | inhibition
CN1CCN(C(c2cccnc2)c2cc(Cl)c3cccnc3c2O)CC1 (stereo not given) | 10% (inactive)
CN1CCN(C(c2ccncc2)c2cc(Cl)c3cccnc3c2O)CC1 (stereo not given) | 4.17% (inactive)
CCOC(c1ccccn1)c1cc(Cl)c2cccnc2c1O (stereo not given) | 15.6% (inactive)
CN1CCN(C(c2ccccc2)c2cc(Cl)c3cccnc3c2O)CC1 (stereo not given) | 4.84% (inactive)
Oc1c(C(c2ccccn2)N2CCNCC2)cc(Cl)c2cccnc12 (stereo not given) | 59%
CC1CCN(C(c2ccccn2)c2cc(Cl)c3cccnc3c2O)CC1 (stereo not given) | 43.2%
